ChEMBL document CHEMBL5120746, “Novel 5-fluorouracil sensitizers for colorectal cancer therapy: Design and synthesis of S1P receptor 2 (S1PR2) antagonists” (Eur J Med Chem, 2022)
Active and inactive are the calls of the source. No cut-off for these calls is given here.

Columns and labels:
[1] = MRT (0 to t) in Sprague-Dawley rat plasma at 1 mg/kg, iv measured up to 24 hrs by HPLC-MS/MS analysis; assay type: ADME, organism-based
SW620/5-FU [2] = assay: Downregulation of DPD expression level in human SW620/5-FU cells measured after 12 hrs by Western blot analysis; assay type: functional, cell-based; conditions: dose 5-40 µM, DDE = dose-dependent effect
NCM460 = assay: Cytotoxicity against human NCM460 cells assessed as reduction in cell viability at 5 to 80 uM in presence of 5-fluorouracil; assay type: toxicity, cell-based; conditions: ncm460, 80 µM, dose 5-80 µM
[3] = AUC (0 to t) in Sprague-Dawley rat plasma at 1 mg/kg, iv measured up to 24 hrs by HPLC-MS/MS analysis; assay type: ADME, organism-based; parameters: dose 1 mg/kg, time < 24 hrs, route iv
Mus musculus = assay: Downregulation of DPD expression in tumor of SPF nude mouse xenografted with human SW620/5-FU cells at 7.5 to 15 mg/kg, iv QD for 21 days by immunohistochemical analysis; assay type: functional, organism-based; conditions: dose 7.5-15 mg/kg, time 21.0 day
SW620/5-FU [4] = assay: Antitumor activity against human SW620/5-FU cells xenografted in SPF nude mouse assessed as tumor growth inhibition at 7.5 mg/kg, iv QD for 21 days and measured every 4 days in presence of 5-fluorouracil; assay type: functional; conditions: 504 h, time 21 day, read-out: TGI
SW620/5-FU [5] = assay: Antitumor activity against human SW620/5-FU cells xenografted in SPF nude mouse assessed as reduction in tumor weight at 15 mg/kg, iv QD for 21 days in presence of 5-fluorouracil; assay type: functional; parameters: scale not given: the % may be the effect or the level left; conditions: time 21 day
SW620/5-FU [6] = assay: Antitumor activity against human SW620/5-FU cells xenografted in SPF nude mouse assessed as reduction in tumor weight at 15 mg/kg, iv QD for 21 days; assay type: functional; parameters: scale not given: the % may be the effect or the level left; conditions: time 21 day
[7] = Downregulation of S1PR2 mRNA expression level in human SW620/5-FU cells at 20 uM measured after 24 hrs by qRT-PCR analysis; assay type: functional
[8] = Initial drug concentration in Sprague-Dawley rat blood at 1 mg/kg, iv measured up to 24 hrs by HPLC-MS/MS analysis; assay type: ADME, organism-based
[9] = MRT (0 to infinity) in Sprague-Dawley rat blood at 1 mg/kg, iv measured up to 24 hrs by HPLC-MS/MS analysis; assay type: ADME, organism-based
SW620/5-FU [10] = assay: Antitumor activity against human SW620/5-FU cells xenografted in SPF nude mouse assessed as tumor growth inhibition at 15 mg/kg, iv QD for 21 days and measured every 4 days; assay type: functional; conditions: 504 h, time 21 day, read-out: TGI

With `Cn1ncc2c(-c3ccc(F)cc3)cc(NNC(=O)Nc3cc(Cl)nc(Cl)c3)nc21` the MRT last at 24 h [1] was 7.6 h, the Activity (SW620/5-FU [2]) was “Dde” and the Activity (NCM460) was “Toxic”. For the same compound, the AUC(0-t) at 24 h [3] was 10100 ng·h/mL, the Activity (Mus musculus) was “Active” and the inhibition in vivo at 7.5 mg/kg (SW620/5-FU [4]) was 43.2%. It also gave an Activity (SW620/5-FU [5]) of 51.72%, an Activity (SW620/5-FU [6]) of 12.34% and an Activity [7] of 25%. It also gave a C0 at 24 h [8] of 4970 ng/mL, an MRT inf [9] of 8.5 h and an inhibition in vivo at 15 mg/kg (SW620/5-FU [10]) of 28.5%.
